Structures can show the parent of a compound that is named as a salt.
system: cpA neuron; experiment: Single-sensillum recording: activation of cpA neuron by odorants; type: cell-based, Aedes aegypti; conditions: A. aegypti cpA, 0.5-s pulses, odorants 10^−2 in paraffin oil or water, solvent response subtracted
Method: FIG. 3b depicts representative traces and mean responses of the A. aegypti cpA neuron to 0.5-s pulses of 138 predicted compounds screened using single-sensillum recordings, in which odorants were diluted to 10^−2 in paraffin oil or water, and responses to solvent have been subtracted, n=2-6, and error bars are s.d.
FIG. 5f is a bar graph illustrating the mean responses of the A. aegypti cpA neuron to 0.5-s pulses of 22 newly predicted compounds screened as in FIG. 3b, where salmon bars correspond to odorants found in human odor, odorants were diluted to 10^−2 in paraffin oil or water, and responses to solvent have been subtracted, and n=2-5.
Adult female A. aegypti (Linnaeus 1762) (Rockefeller strain) A. gambiae sensu stricto Giles 1902 (G3 strain), or C. quinquefasciatus Say 1823 were tested 3-12 days post-emergence with single-sensillum extracellular recordings. Chemicals were obtained from Sigma-Aldrich at the highest purity (typically >99%) and were dissolved in paraffin oil or water. […] Response to clean beads was subtracted from the results reported. Only sensilla with cpA activity of <20 spikes s^−1 to negative control were considered for analysis.
CpA-off and sham treated mosquitoes were pre-treated for 3 min in an upended 1 L glass dish in which 100 μl of fresh butyryl chloride (1%) or paraffin oil was allowed to vaporize for 10-20 min. The odor delivery system for different screens is shown in FIG. 7b; solvent responses during the same recording session were subtracted. Inhibition screen was tested. For the ultra-prolonged activator the 3-s stimulus was delivered from a 10 ml disposable pipette using a CS-55 stimulus controller (Syntech), CO2 was delivered, and responses to subsequent odor stimuli were calculated by subtracting baseline activity 1 s prior to each stimulus. When responses to repeated pulses of cyclopentanone and CO2 were compared, baseline activity between seconds 5 and 6 following each stimulus was subtracted. Spike counting was done manually or with Igor Pro6.2 (Wavemetrics) with the Neuromatic v2.00 macro (by Jason Rothman), and peak-to-peak spike amplitudes for FIG. 8 were analysed in Clampfit 10.3 (Molecular Devices).
From the large list of cpA receptor ligands predicted from Example 3 above, 138 compounds were selected based on desirable criteria for application such as smell, presence in natural sources, human safety profile, and cost to procure. These compounds were tested individually using single-sensillum electrophysiology on the cp sensillum of female A. aegypti, according to the procedure described in Example 1 above.

SMILES	Activation (spikes s^−1)
c1cnc2cccnc2c1 [1,5-naphthyridine]	1.5
CC(=O)c1ccc[nH]1 [1-(1H-pyrrol-2-yl)ethanone]	1.5
CC(=O)C1=NCCS1 [1-(4,5-dihydro-1,3-thiazol-2-yl)ethanone]	8.0
Cn1cccc1 [1-methylpyrrole]	54.2
CCCC(=O)c1ccccc1 [1-phenylbutan-1-one]	1.5
CCC(O)c1ccccc1 (centres unmarked) [1-phenylpropan-1-ol]	−3.5
CC(=O)c1ccncc1 [1-pyridin-4-ylethanone]	3.5
O=Cc1cnc[nH]1 [1H-imidazole-5-carbaldehyde]	2.5
c1cc[nH]c1 [1H-pyrrole]	89.8
CCc1nccnc1CC [2,3-diethylpyrazine]	−15.5
C=C(C)C(=C)C [2,3-dimethylbuta-1,3-diene]	10.0
CC1CCCC(C)N1 (centres unmarked) [2,6-dimethylpiperidine]	2.5
Cc1cncc(C)n1 [2,6-dimethylpyrazine]	14.8
CC(C)Cc1nccs1 [2-(2-methylpropyl)-1,3-thiazole]	12.0
Cc1ncsc1CCO [2-(4-methyl-1,3-thiazol-5-yl)ethanol]	4.5
CCOCc1cnccn1 [2-(ethoxymethyl)pyrazine]	−8.0
CC(C)SCc1ccco1 [2-(propan-2-ylsulfanylmethyl)furan]	−0.5
C[N+](C)(C)CC(=O)[O-] [2-(trimethylazaniumyl)acetate]	2.5
CCC(C)C(N)C(=O)O (centres unmarked) [2-amino-3-methylpentanoic acid]	−2.5
CCC(N)C(=O)O (centres unmarked) [2-aminobutanoic acid]	−3.0
CC(N)C(=O)O (centres unmarked) [2-aminopropanoic acid]	−1.5
CCC(C)c1nccnc1OC (centres unmarked) [2-butan-2-yl-3-methoxypyrazine]	−10.5
CCOC1CCCO1 (centres unmarked) [2-ethoxyoxolane]	6.5
CCc1ccc[nH]1 [2-ethyl-1H-pyrrole]	8.5
CCc1nccnc1OC [2-ethyl-3-methoxypyrazine]	−17.5

SMILES	Activation (spikes s^−1)
CCc1nccnc1C [2-ethyl-3-methylpyrazine]	−7.5
CCc1cnccn1 [2-ethylpyrazine]	34.5
COc1nccnc1C [2-methoxy-3-methylpyrazine]	−27.5
Cc1nccnc1CC(C)C [2-methyl-3-(2-methylpropyl)pyrazine]	1.0
CSc1ccoc1C [2-methyl-3-methylsulfanylfuran]	12.0
Cc1ccccc1C=O [2-methylbenzaldehyde]	19.0
CCC(C)C=O (centres unmarked) [2-methylbutanal]	33.5
Cc1ccco1 [2-methylfuran]	48.0
CC1OCCC1=O (centres unmarked) [2-methyloxolan-3-one]	58.4
CCC=C(C)C=O [2-methylpent-2-enal]	36.5
C/C=C\C(=O)OCC(C)C [2-methylpropyl (Z)-but-2-enoate]	−5.0
CC(C)COC=O [2-methylpropyl formate]	48.0
CCC(=O)C(=O)O [2-oxobutanoic acid]	7.0
CCCC(=O)C(=O)O [2-oxopentanoic acid]	0.0
CCCCCc1ccccn1 [2-pentylpyridine]	−6.5
CC(C)CC(=O)OCCc1ccccc1 [2-phenylethyl 3-methylbutanoate]	4.5
C/C=C(\C)C(=O)OCCc1ccccc1 [2-phenylethyl (E)-2-methylbut-2-enoate]	2.5
CCCC(=O)OCCc1ccccc1 [2-phenylethyl butanoate]	−5.5
CCC(=O)OCCc1ccccc1 [2-phenylethyl propanoate]	−1.5
CC1CC(=O)C(=O)C1C (centres unmarked) [3,4-dimethylcyclopentane-1,2-dione]	1.5
Cc1cncc(C)c1 [3,5-dimethylpyridine]	7.5
CC(C)=CCCC(C)CCO (centres unmarked) [3,7-dimethyloct-6-en-1-ol]	1.5
CC(C)=CCCC(C)CC(=O)O (centres unmarked) [3,7-dimethyloct-6-enoic acid]	6.0
CC(C)Cc1cccnc1 [3-(2-methylpropyl)pyridine]	5.5
NCCC(=O)O [3-aminopropanoic acid]	8.0

SMILES	Activation (spikes s^−1)
CCc1cccnc1 [3-ethylpyridine]	42.5
CC(=O)C(C)O (centres unmarked) [3-hydroxybutan-2-one]	0.5
CC(C)=CC=O [3-methylbut-2-enal]	55.5
CC(C)=CC(=O)O [3-methylbut-2-enoic acid]	0.5
CC(C)CCO [3-methylbutan-1-ol]	51.8
CC(C)CC=O [3-methylbutanal]	60.2
CC(C)CC#N [3-methylbutanenitrile]	75.8
CC1=CC(O)CCC1 (centres unmarked) [3-methylcyclohex-2-en-1-ol]	23.0
CC1=CC(=O)CC1 [3-methylcyclopent-2-en-1-one]	31.0
CC1CCC(=O)C1=O (centres unmarked) [3-methylcyclopentane-1,2-dione]	3.5
CCC(C)CC(=O)O (centres unmarked) [3-methylpentanoic acid]	3.7
Cc1cccc(O)c1 [3-methylphenol]	44.0
OCCCc1ccccc1 [3-phenylpropan-1-ol]	−3.0
CCc1ccc(C=O)cc1 [4-ethylbenzaldehyde]	2.5
CC1=C(O)C(=O)OC1C (centres unmarked) [4-hydroxy-2,3-dimethyl-2H-furan-5-one]	9.0
CC1(O)CCOC(=O)C1 (centres unmarked) [4-hydroxy-4-methyloxan-2-one]	−1.0
CC(=O)CC(C)(C)O [4-hydroxy-4-methylpentan-2-one]	2.0
Cc1cscn1 [4-methyl-1,3-thiazole]	111.8
CC(C)=CC1CC(C)CCO1 (centres unmarked) [4-methyl-2-(2-methylprop-1-enyl)oxane]	1.5
CCCC1OCC(C)O1 (centres unmarked) [4-methyl-2-propyl-1,3-dioxolane]	13.0
CC(=O)C=C(C)C [4-methylpent-3-en-2-one]	34.0
CC(C)CC(C)O (centres unmarked) [4-methylpentan-2-ol]	24.0
CC(=O)CCC(=O)O [4-oxopentanoic acid]	4.5
CC(=O)CCc1ccccc1 [4-phenylbutan-2-one]	0.5

same assay, conditions: cpA neuron; 20 compounds from the top 200 SVM ligand predictions; negative values = inhibition; N = 4

SMILES	Activation (spikes s−1)
C=CCCC [1-pentene]	10.3
Cc1csc(C)n1 [2,4-dimethyl-1,3-thiazole]	39.0
Cc1ccc(C)s1 [2,5-dimethylthiophene]	0.3
CCc1cccs1 [2-ethylthiophene]	9.3
CC1CCCO1 (centres unmarked) [2-methyloxolane]	82.5
CC(C)CO [2-methylpropan-1-ol]	95.0
C=C(C)CCO [3-methylbut-3-en-1-ol]	64.3
C=CCSC [3-methylsulfanylprop-1-ene]	52.8
Cc1ccsc1 [3-methylthiophene]	33.8

Reference: patent US9897592B2, “Methods for identifying arthropod repellents and attractants, and compounds and compositions identified by such methods” (The Regents of the University of California, priority 2013, dated 2018)
